Results as given in publication PMC9678865, “An odorant-binding protein in the elephant's trunk is finely tuned to sex pheromone (Z)-7-dodecenyl acetate” (Scientific Reports, 2022).
“Also recorded” adds a separate entry of the source.

Legend:
[1] = molecular target: T1, recombinant EmaxOBP1 (Elephas maximus, UniProt Q8HZN2); experiment: Titration of recombinant protein with fluorescent probe 1-NPN; format: binding, Asian elephant (Elephas maximus); conditions: 2 μM protein in 50 mM Tris-HCl pH 7.4, room temperature
T1 sequence (Q8HZN2 entry or part of it): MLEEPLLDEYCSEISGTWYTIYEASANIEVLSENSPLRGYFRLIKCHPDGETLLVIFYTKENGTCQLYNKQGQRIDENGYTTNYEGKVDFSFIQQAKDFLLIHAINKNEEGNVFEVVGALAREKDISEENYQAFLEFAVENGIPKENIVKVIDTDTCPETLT
Method: (§1) Affinities of the fluorescent probe N-phenyl-1-naphthylamine (1-NPN) to EmaxOBP1 and LafrOBP1 (both expressed in yeast) were evaluated by titrating a 2 μM solution of each protein in 50 mM Tris-HCl, pH 7.4 with 1 mM 1-NPN in methanol to final concentrations of 2–16 μM. Dissociation constants of other ligands were measured by displacement of the fluorescent reporter 1-NPN from the complex. Accordingly, solutions of protein and 1-NPN, both at the concentration of 2 μM in 50 mM Tris-HCl, pH 7.4, were titrated with 1 mM methanol solutions of each ligand to final concentrations of 2–16 μM. Emission spectra were recorded on a PerkinElmer FL 6500 spectrofluorimeter in a right-angle configuration, at room temperature, with slits of 5 nm for both excitation and emission, using 1 cm path quartz cuvettes. The excitation wavelength was set at 337 nm and intensities were recorded in correspondence with the peak maximum, around 390 nm. Data for 1-NPN were processed with Prism software.

[2] = test system: second major band (apparent mass around 25 kDa) from expression of LafrOBP1 in P. pastoris; experiment: Binding of 1-NPN to the second band (around 25 kDa) from LafrOBP1 expression; design: species or system African elephant (Loxodonta africana); conditions: purified second band
From the text: Based on above-reported proteomic analysis and on the available sequences in the protein databases, we decided to focus our functional study on the OBP1 of both species. Thus, LafrOBP1 and EmaxOBP1 were expressed in the yeast Pichia pastoris using the protocol reported in the Materials and Methods section. We chose to perform functional studies on recombinant proteins because attempts to purify natural LafrOBP1 from its contaminants were unsuccessful (data not shown). The recombinant proteins were secreted in the culture medium, concentrated by ultrafiltration and purified by anion-exchange chromatography, followed by a step of hydrophobic interaction chromatography on Phenyl Sepharose. Figure S3 reports the SDS-PAGE analysis relative to the expression and purification of the two proteins. The expression of EmaxOBP1 produced a single major band migrating with an apparent molecular weight (around 20 kDa), compatible with the calculated mass for this protein (18,506.7 Da). Instead, the expression of the African elephant orthologue afforded two major bands, the first migrating at the same level as EmaxOBP1, the second with an apparent mass around 25 kDa.

[3] = test system: OBP in the trunk wash of the Asian elephant; design: method as in PMID 12269821; conditions: tritium-labelled ligand; radioactivity associated with OBP band; no dissociation constant; cited from earlier work
[4] = molecular target: recombinant LafrOBP1 (Loxodonta africana, UniProt G3UMG1); experiment: Competitive binding by displacement of 1-NPN; design: species or system African elephant (Loxodonta africana); conditions: protein and 1-NPN 2 μM each, ligand 2–16 μM
Sequence of recombinant LafrOBP1 (G3UMG1 entry or part of it): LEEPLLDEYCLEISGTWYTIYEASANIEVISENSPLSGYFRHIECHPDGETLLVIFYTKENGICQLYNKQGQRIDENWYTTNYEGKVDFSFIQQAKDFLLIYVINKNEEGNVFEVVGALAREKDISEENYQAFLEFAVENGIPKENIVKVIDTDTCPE
Method: (§2) Recombinant LafrOBP1 and EmaxOBP1 were then tested in ligand-binding assays using the Asian elephant pheromones (Z)-7-dodecenyl acetate and frontalin, and the insect pheromone components found in elephants, exo-brevicomin and (E)-β-farnesene, as well as structurally related compounds, and chemicals of different size and structure, which could contribute to estimate the specificity of these proteins. Both LafrOBP1 and EmaxOBP1 bound the fluorescent probe 1-NPN with good affinity (Fig. 5A), thus enabling the use of the fluorescent displacement assay to evaluate the affinities of other ligands. Some representative curves of competitive binding experiments for LafrOBP1 are shown in Fig. 5B-C, while in the histogram of Fig. 5D the binding spectra of LafrOBP1 and EmaxOBP1 are compared. The specificity of LafrOBP1 can be better appreciated from the graph of Fig. 6, where the affinities of esters to the protein are plotted as a function of the ligand's size.
as §1
(§3) Dissociation constants of other ligands were calculated from the corresponding [IC]50 values (the. concentration of each ligand halving the initial value of fluorescence), using the equation: Kd = [IC]50/1 + [1-NPN]/KNPN, where [1-NPN] is the concentration of free 1-NPN and KNPN the. dissociation constant of the complex OBP/1-NPN.

[5] = molecular target: T1, recombinant EmaxOBP1; experiment: Competitive binding by displacement of 1-NPN; design: species or system Asian elephant (Elephas maximus); conditions: protein and 1-NPN 2 μM each, ligand 2–16 μM
Method: as §2, §1, §3

[6] = molecular target: natural LafrOBP1 (trunk wash fractions 26–29, also containing its isoform and LafrVEG) (Loxodonta africana, UniProt G3UMG1); experiment: Competitive fluorescent (1-NPN) ligand-binding assay on crude anion-exchange fractions 26–29 of trunk wash; design: species or system African elephant (Loxodonta africana); conditions: crude trunk wash fractions 26–29 / natural LafrOBP1
Sequence of natural LafrOBP1 (trunk wash fractions 26–29, also containing its isoform and LafrVEG) (G3UMG1 entry or part of it): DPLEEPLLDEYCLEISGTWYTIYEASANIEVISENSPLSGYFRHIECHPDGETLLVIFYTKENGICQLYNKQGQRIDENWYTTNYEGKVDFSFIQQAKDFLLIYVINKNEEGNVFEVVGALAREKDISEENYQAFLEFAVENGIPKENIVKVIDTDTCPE
Method: Given the predominant presence of LafrOBP1 in the trunk wash of the African elephant, we attempted purification of this protein from a crude sample of this secretion by anion-exchange chromatography. Relevant fractions (#26–29) were analysed by SDS-PAGE, (Fig. 2A) and nanoLC-ESI-Q-Orbitrap-MS/MS to identify the proteins present and detect possible PTMs. The same fractions were also tested in ligand-binding assays with some of the two elephants' pheromones and other potential semiochemicals to detect any binding activity (Fig. 2B-C).
Figure 2 (A) Fractionation of a crude extract of trunk wash from the African elephant by anion-exchange chromatography. SDS-PAGE analysis of the fractions showing electrophoretic bands in the low molecular weight range (15–25 kDa). (B) Summary of the affinities to (Z)-7-dodecenyl acetate, (E)-β-farnesene and frontalin measured with crude samples of the same fractions. All of them bound with good affinity both (Z)-7-dodecenyl acetate and (E)-β-farnesene. […] Dissociation constants were evaluated using the procedure adopted when dealing with solutions of a pure protein; as this is not the case, the values have to be taken as a crude indication of the affinity of the ligands for the protein. (C) Examples of the competition curves measured with the three ligands on fraction 27. […]
as §1, with “Accordingly, solutions of protein and 1-NPN, both at the concentration of 2 μM in 50 mM Tris-HCl, pH 7.4, were titrated with 1 mM methanol solutions of each ligand to final concentrations of 2–16 μM.” left out, “Data for 1-NPN were processed with Prism software.” left out

SMILES	binding to recombinant LafrOBP1 (in words) [4]	binding to recombinant EmaxOBP1 (in words) [5]	other results
c1ccc(Nc2cccc3ccccc23)cc1 [1-NPN, N-phenyl-1-naphthylamine]	–	–	Kd [1]: 460 nM; affinity to the 25 kDa band (in words) [2]: did not show any affinity
CCCC/C=C/CCCCCCOC(C)=O [(E)-7-dodecenyl acetate]	–	–	binding to trunk wash OBP (in words) [3]: shown to bind
C=CC(=C)CC/C=C(\C)CCC=C(C)C [(E)-β-farnesene, (6E)-7,11-dimethyl-3-methylene-1,6,10-dodecatriene]	good ligand	–	–
CC/C=C\CCOC(C)=O [(Z)-3-hexenyl acetate]	did not show significant binding	did not show significant binding	–
CCCC/C=C\CCCCCCOC(C)=O [(Z)-7-dodecenyl acetate]	strongest ligand	–	–
CCCCCC/C=C\CCCCCCCC=O [(Z)-9-hexadecenal]	did not show significant binding	did not show significant binding	–
CCCC/C=C\CCCCCCCCCC=O [(Z)-11-hexadecenal]	did not show significant binding; also recorded: did not exhibit significant affinity	did not show significant binding; also recorded: did not exhibit significant affinity	–
CCCC/C=C\CCCCCCCCCCOC(C)=O [(Z)-11-hexadecenyl acetate]	did not show significant binding	did not show significant binding	–
CCCC/C=C\CCCCCCCCCCCC=O [(Z)-13-octadecenal]	did not show significant binding; also recorded: did not exhibit significant affinity	did not show significant binding; also recorded: did not exhibit significant affinity	–
CC1(C)C2CCC1(C)C(O)C2 (stereo not drawn) [borneol]	did not show significant binding	did not show significant binding	–
CCCCCCCCCC=O [decanal]	did not show significant binding; also recorded: did not exhibit significant affinity	did not show significant binding; also recorded: did not exhibit significant affinity	–
CCCCCCCCCCCC=O [dodecanal]	did not show significant binding	did not show significant binding	–
CCCCCCCCCCCCCC(=O)OCC [ethyl myristate]	did not show significant binding	did not show significant binding	–
CC12CCC(CC1)C(C)(C)O2 [eucalyptol]	did not show significant binding	did not show significant binding	binding to recombinant LafrOBP1 (in words) ([4]; listed as eucaliptol): did not exhibit significant affinity; binding to recombinant EmaxOBP1 (in words) ([5]; listed as eucaliptol): did not exhibit significant affinity
C=CCc1ccc(O)c(OC)c1 [eugenol]	did not show significant binding; also recorded: did not exhibit significant affinity	did not show significant binding; also recorded: did not exhibit significant affinity	–
CC[C@H]1O[C@]2(C)CCC[C@H]1O2 [exo-brevicomin, (1R,5S,7R)-7-ethyl-5-methyl-6,8-dioxabicyclo[3.2.1]octane]	–	–	binding to trunk wash fractions (in words) [6]: did not exhibit any affinity
CC(C)=CCC/C(C)=C/CC/C(C)=C/CO [farnesol]	–	–	binding to trunk wash fractions (in words) [6]: as good a ligand as (E)- β-farnesene
CC12CCCC(C)(OC1)O2 (stereo not drawn) [frontalin, 1,5-dimethyl-6,8-dioxabicyclo[3.2.1]octane]	no affinity; also recorded: did not exhibit any affinity	no affinity	binding to trunk wash fractions (in words) [6]: none of them appreciably bound; also recorded: no affinity
CCCCCC=O [hexanal]	did not exhibit significant affinity	did not exhibit significant affinity	–
CCCCCCCC=O [octanal]	did not show significant binding; also recorded: did not exhibit significant affinity	did not show significant binding; also recorded: did not exhibit significant affinity	–
Cc1ccc(O)cc1 [p-cresol]	did not exhibit significant affinity	did not exhibit significant affinity	–
CCCCCCCCCC1CCC(=O)O1 (stereo not drawn) [γ-tridecalactone]	did not show significant binding	did not show significant binding	–
